Test results from US9205064B2, “Methods for the diagnosis of oncological disorders using epimetabolic shifters, multidimensional intracellular molecules, or environmental influencers” (Berg LLC, priority 2009, dated 2015).

How the values were obtained:
[1] = tested on: Succinate Dehydrogenase B in NCIE0808 Mitopreps; assay: Western blot of succinate dehydrogenase B in mitochondrial preparations; assay type: cell-based; conditions: mitochondrial preparations of cancer cells
Description: The above blots were stripped by incubating for 30 minutes with methanol, followed by two 10 minute washes with TBS-T, then 30 minutes of incubation with Stripping buffer at 50 deg C., and followed by two washes with 100 ml or more of TBS-T for 30′ each. The blots were scanned in laser scanner to check for complete stripping. The blots were activated with methanol for 5 seconds, washed with water for 5 minutes, and TBST for 15 minutes. The blots were blocked for 1 hour with 5% blocking reagent in TBS-T at room temperature and then washed 3 times with TBS-T (1×-15′; 2×5′ each) and probed with the primary antibody for PKM2, SDHB or SDHC in 5% BSA in TBS-T by incubation overnight at 4 deg C. with gentle shaking. The primary antibody for SDHC (ABNOVA H00006391-M02; antimouse) was at 1:500 dilution. The primary antibody for SDHB was from Abcam ab4714-200; antimouse; at 1:1000 dilution. The primary antibody for Pyruvate Kinase M2 (PKM2) was from Novus Biologicals H00005315-D0IP; antirabbit; at 1:500 dilution. After incubation with primary antibodies, the membranes were washed 3 times with TBS-T (1×-15′; 2×5′ each) and probed with the secondary antibody (SDHB & C antimouse; and PKM2 antirabbit; 1:10,000 dilution) for 1 h on the orbital tilting shaker at room temperature. […]

HDFa cells = assay: SeaHorse XF analyzer OCR and ECAR; assay type: cell-based, human; conditions: normoxic and hypoxic, 5.5 mM and 22 mM glucose
Text: Environmental influencers (e.g., MIMs or Epi-shifters) may also be identified by changes in cellular energetics. One example of the measurement of cellular energetics are the real-time measures of the consumption of molecular oxygen and/or the change in pH of the media of a cell culture. For example, the ability of a potential epi-shifter to modulate the metabolic state of a cell may be analyzed using, for example, the XF24 Analyzer (Seahorse, Inc.). This technology allows for real time detection of oxygen and pH changes in a monolayer of cells in order to evaluate the bioenergetics of a cell microenvironment. The XF24 Analyzer measures and compares the rates of oxygen consumption (OCR), which is a measure of aerobic metabolism, and extracellular acidification (ECAR), which is a measure of glycolysis, both key indicators of cellular energetics.
(SeaHorse Biosciences Inc, North Billerica, Mass.).
In this experiment, the OCR and extracellular acidification rate (ECAR) in normal cells lines were obtained in the presence and absence of CoQ10 to determine baseline values. It was observed that in its native nutrient environment, the basal OCR rates in normal cells lines are different, and are usually a function of the physiological roles of the cells in the body.
FIGS. 29 and 30 describe the OCR in HDFa and HASMC cells grown in physiologically normal glucose (about 4.6 mM) and high glucose (hyperglycemic) conditions.
Table 53, below, describes the ECAR values (mpH/min) in HDFa cells in the presence or absence of CoQ10 under normoxic and hypoxic conditions at 5.5 mM and 22 mM glucose.

In the case of `COC1=C(OC)C(=O)C(C/C=C(\C)CC/C=C(\C)CC/C=C(\C)CC/C=C(\C)CC/C=C(\C)CC/C=C(\C)CC/C=C(\C)CC/C=C(\C)CC/C=C(\C)CCC=C(C)C)=C(C)C1=O` [Q10, Coenzyme Q10], the “SDH Subunit B protein levels” value [1] is reported as “increase SDH protein levels” and the “influence on ECAR values” (HDFa cells) is reported as “minimal influence”.
